According to patent US20070249620A1, “Urea Derivative” (priority 2004, published 2007):

Tests used:
mouse DGAT1 = target: T1, mouse DGAT1 (Mus musculus, UniProt Q9Z2A7); assay: DGAT1 inhibitory effect test (microsome fraction, [14C]-oleoyl-CoA, triglyceride radioactivity by TLC); format: biochemical; details: 0.5 h; concentration of the test compound 0.1 μg/ml; mouse DGAT1 microsomes, 23° C., 30 minutes; read-out: Inhibitory ratio
T1 construct: made in house; host or cells: insect cells (High Five, Sf9, Sf21, etc.), baculovirus expression system (Invitrogen)
T1 sequence (Q9Z2A7 1-498): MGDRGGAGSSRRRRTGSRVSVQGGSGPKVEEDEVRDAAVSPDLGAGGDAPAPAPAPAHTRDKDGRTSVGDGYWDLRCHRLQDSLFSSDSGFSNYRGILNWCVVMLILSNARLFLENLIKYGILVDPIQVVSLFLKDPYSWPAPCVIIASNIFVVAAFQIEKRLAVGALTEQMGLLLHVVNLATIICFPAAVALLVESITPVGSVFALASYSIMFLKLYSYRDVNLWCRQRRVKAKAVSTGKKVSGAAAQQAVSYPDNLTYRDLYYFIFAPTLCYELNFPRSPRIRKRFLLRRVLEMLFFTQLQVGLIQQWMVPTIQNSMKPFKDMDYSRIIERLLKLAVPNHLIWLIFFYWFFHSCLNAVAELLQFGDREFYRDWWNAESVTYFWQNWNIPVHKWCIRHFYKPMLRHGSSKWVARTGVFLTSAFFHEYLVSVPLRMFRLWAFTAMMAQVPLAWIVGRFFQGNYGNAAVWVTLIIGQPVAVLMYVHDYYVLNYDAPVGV
Summary of the method: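 Inhibition was scored from radiolabelled triglyceride separated by TLC, relative to vehicle and net of a 0-min background. The reaction ran for 30 min at room temperature (23 °C) in Tris-HCl pH 8.0 with MgCl2, BSA and Triton X-100. Substrates were 30 μM [14C]-oleoyl-CoA and 0.5 mM dioleoylglycerol, with mouse DGAT1 microsomes from baculovirus-infected insect cells as enzyme.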

Structure (SMILES) | inhibition at 0.1 µg/mL (mouse DGAT1) | melting point
COc1ccc(C)cc1NC(=O)Nc1ccc(N2CCN(C(=O)Nc3c(Cl)cccc3C(F)(F)F)CC2)cc1 [Example 66, 4-{4-[3-(2-methoxy-5-methyl-phenyl)-ureido]-phenyl}-piperazine-1-carboxylic acid (2-chloro-6-trifluoromethyl-phenyl)-amide] | ≥ 50% | 196 to 197 °C
CCOc1ccc(C)cc1NC(=O)Nc1ccc(N2CCN(C(=O)Nc3c(Cl)cccc3Cl)CC2)cc1 [Example 134, 4-{4-[3-(2-ethoxy-5-methyl-phenyl)-ureido]-phenyl}-piperazine-1-carboxylic acid (2,6-dichloro-phenyl)-amide] | ≥ 50% | 159 to 161 °C
CCOc1ccc(Cl)cc1NC(=O)Nc1ccc(N2CCN(C(=O)Nc3c(Cl)cccc3Cl)CC2)cc1 [Example 135, 4-{4-[3-(5-chloro-2-ethoxy-phenyl)-ureido]-phenyl}-piperazine-1-carboxylic acid (2,6-dichloro-phenyl)-amide] | ≥ 50% | 135 to 137 °C
COc1ccc(C)cc1NC(=O)Nc1ccc(N2CCN(C(=O)Nc3c(C)cccc3OC)CC2)cc1 [Example 170, 4-{4-[3-(2-methoxy-5-methyl-phenyl)-ureido]-phenyl}-piperazine-1-carboxylic acid (2-methoxy-6-methyl-phenyl)-amide] | ≥ 50% | 200 to 203 °C
Cc1ccc(C)c(NC(=O)Nc2ccc(N3CCN(C(=O)Nc4c(C)cccc4Cl)CC3)cc2)c1 [Example 131, 4-{4-[3-(2,5-dimethyl-phenyl)-ureido]-phenyl}-piperazine-1-carboxylic acid (2-chloro-6-methyl-phenyl)-amide] | ≥ 50% | 251 to 253 °C
CCc1csc(NC(=O)Nc2ccc(N3CCN(C(=O)Nc4ccc(OCCO)cc4C(F)(F)F)CC3)cc2)n1 [Example 246, 4-{4-[3-(4-ethyl-thiazol-2-yl)-ureido]-phenyl}-piperazine-1-carboxylic acid [4-(2-hydroxy-ethoxy)-2-trifluoromethyl-phenyl]-amide] | ≥ 50% | 124 to 125 °C
Cc1cnc(NC(=O)Nc2ccc(N3CCN(C(=O)Nc4ccc(OCCO)cc4C(F)(F)F)CC3)cc2)s1 [Example 213, 4-{4-[3-(5-methyl-thiazol-2-yl)-ureido]-phenyl}-piperazine-1-carboxylic acid [4-(2-hydroxy-ethoxy)-2-trifluoromethyl-phenyl]-amide] | ≥ 50% | 118 to 120 °C
COc1ccc(Cl)cc1NC(=O)Nc1ccc(N2CCN(C(=O)Nc3c(C)cccc3Cl)CC2)cc1 [Example 79, 4-{4-[3-(5-chloro-2-methoxy-phenyl)-ureido]-phenyl}-piperazine-1-carboxylic acid (2-chloro-6-methyl-phenyl)-amide] | ≥ 50% | 225 to 227 °C
COc1ccc(C)cc1NC(=O)Nc1ccc(N2CCN(C(=O)Nc3ccc(NC(C)=O)cc3Cl)CC2)cc1 [Example 169, 4-{4-[3-(2-methoxy-5-methyl-phenyl)-ureido]-phenyl}-piperazine-1-carboxylic acid (4-acetylamino-2-chloro-phenyl)-amide] | ≥ 50% | 155 to 157 °C
O=C(Nc1ccc2c(c1)CCN(C(=O)Nc1ccc(OCCO)cc1C(F)(F)F)C2)Nc1ccccc1F [Example 227, 6-[3-(2-fluoro-phenyl)-ureido]-3,4-dihydro-1H-isoquinoline-2-carboxylic acid [4-(2-hydroxy-ethoxy)-2-trifluoromethyl-phenyl]-amide] | ≥ 50% | 162 to 164 °C
COc1ccccc1NC(=O)Nc1ccc(N2CCN(C(=O)Nc3c(C)cccc3Cl)CC2)cc1 [Example 124, 4-{4-[3-(2-methoxy-phenyl)-ureido]-phenyl}-piperazine-1-carboxylic acid (2-chloro-6-methyl-phenyl)-amide] | ≥ 50% | 245 to 247 °C
CCCCCCNC(=O)Nc1ccc(N2CCN(C(=O)Nc3c(C)cccc3Cl)CC2)cc1 [Example 206, 4-[4-(3-hexyl-ureido)-phenyl]-piperazine-1-carboxylic acid (2-chloro-6-methyl-phenyl)-amide] | ≥ 50% | 206 to 210 °C

Now from value to molecule:

inhibition at 0.1 µg/mL (mouse DGAT1) | melting point | Structure (SMILES)
≥ 50% | 148 to 150 °C | COc1ccc(C)cc1NC(=O)Nc1ccc(N2CCN(C(=O)Nc3ccc(OCC(O)CO)cc3C)CC2)cc1 (stereo not shown) [Example 276, 4-{4-[3-(2-methoxy-5-methyl-phenyl)-ureido]-phenyl}-piperazine-1-carboxylic acid [4-(2,3-dihydroxy-propoxy)-2-methyl-phenyl]-amide]
≥ 50% | 170 to 175 °C | O=C(Nc1ccc(C2CCN(C(=O)Nc3ccc(OCC(O)CO)cc3Cl)CC2)cc1)Nc1ccccc1F (stereo not shown) [Example 292, 4-{4-[3-(2-fluoro-phenyl)-ureido]-phenyl}-piperidine-1-carboxylic acid [2-chloro-4-(2,3-dihydroxy-propoxy)-phenyl]-amide]
≥ 50% | 130 to 135 °C | COc1ccccc1NC(=O)Nc1ccc2c(c1)CCN(C(=O)Nc1ccc(OCCO)cc1Cl)C2 [Example 265, 6-[3-(2-methoxy-phenyl)-ureido]-3,4-dihydro-1 H-isoquinoline-2-carboxylic acid [2-chloro-4-(2-hydroxy-ethoxy)-phenyl]-amide]
≥ 50% | 166 to 171 °C | O=C(Nc1ccc(C2CCN(C(=O)Nc3ccc(OCCO)cc3Cl)CC2)cc1)Nc1ccccc1F [Example 263, 4-{4-[3-(2-fluoro-phenyl)-ureido]-phenyl}-piperidine-1-carboxylic acid [2-chloro-4-(2-hydroxy-ethoxy)-phenyl]-amide]
≥ 50% | 173 to 175 °C | COc1ccccc1NC(=O)Nc1ccc(N2CCN(C(=O)Nc3ccc(OCCO)cc3Cl)CC2)c(Cl)c1 [Example 269, 4-{2-chloro-4-[3-(2-methoxy-phenyl)-ureido]-phenyl}-piperazine-1-carboxylic acid [2-chloro-4-(2-hydroxy-ethoxy)-phenyl]-amide]
≥ 50% | 119 to 121 °C | COc1ccc(C)cc1NC(=O)Nc1ccc2c(c1)CCN(C(=O)Nc1ccc(OCC(O)CO)cc1Cl)C2 (stereo not shown) [Example 280, 6-[3-(2-methoxy-5-methyl-phenyl)-ureido]-3,4-dihydro-1H-isoquinoline-2-carboxylic acid [2-chloro-4-(2,3-dihydroxy-propoxy)-phenyl]-amide]
≥ 50% | 110 to 112 °C | CCOc1ccccc1NC(=O)Nc1ccc(N2CCN(C(=O)Nc3ncccc3C)CC2)cc1 [Example 304, 4-{4-[3-(2-ethoxy-phenyl)-ureido]-phenyl}-piperazine-1-carboxylic acid (3-methyl-pyridin-2-yl)-amide]
≥ 50% | 129 to 134 °C | CCOc1cccc(NC(=O)Nc2ccc(C3CCN(C(=O)Nc4ccc(OCCO)cc4Cl)CC3)cc2)c1 [Example 264, 4-{4-[3-(3-ethoxy-phenyl)-ureido]-phenyl}-piperidine-1-carboxylic acid [2-chloro-4-(2-hydroxy-ethoxy)-phenyl]-amide]
